Laboratory results as given in ChEMBL document CHEMBL3639310, “Substituted dihydropyrazolones and their use” (2013).

Target: Egl nine homolog 1 (Homo sapiens, UniProt Q9GZT9)
Test: In Vitro Inhibition Assay: In vitro tests for determination of the activity and selectivity of HIF prolyl 4-hydroxylase inhibitors. Hydroxylated HIF bonds specifically to the von Hippel-Lindau protein-elongin B-elongin C complex (VBC complex). This interaction occurs only if HIF is hydroxylated on a conserved prolyl radical. It is the basis for the biochemical determination of HIF prolyl hydroxylase activity. The test is carried out as described [Oehme F., Jonghaus W., Narouz-Ott L., Huetter J., Flamme I., Anal. Biochem. 330 (1), 74-80 (2004)].

Sequence of Egl nine homolog 1 (Q9GZT9 whole entry, looked up): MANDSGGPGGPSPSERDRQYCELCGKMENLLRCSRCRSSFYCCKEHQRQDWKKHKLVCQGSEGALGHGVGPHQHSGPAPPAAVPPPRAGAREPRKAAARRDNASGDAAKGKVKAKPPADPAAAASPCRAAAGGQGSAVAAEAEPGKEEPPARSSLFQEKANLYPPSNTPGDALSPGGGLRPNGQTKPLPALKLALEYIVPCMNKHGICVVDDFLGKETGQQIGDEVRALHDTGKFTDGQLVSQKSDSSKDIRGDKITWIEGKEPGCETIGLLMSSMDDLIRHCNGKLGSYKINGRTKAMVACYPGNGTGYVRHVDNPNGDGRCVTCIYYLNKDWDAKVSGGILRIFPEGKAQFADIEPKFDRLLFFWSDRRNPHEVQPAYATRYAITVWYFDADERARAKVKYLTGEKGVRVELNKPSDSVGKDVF

IC50: 90 nM
Compound: N#Cc1cn(-c2c[nH]n(-c3cc(N4CC(F)(F)C4)ncn3)c2=O)cn1
